This note sets out measurements from ChEMBL document CHEMBL1201862, “PubChem BioAssay data set” (2004).

Among the test systems are OVCAR-3; HOP-92; Malme-3M; U-251; SK-MEL-28; NCI-H460; MDA-MB-231; OVCAR-5; CCRF-CEM; RPMI-8226; HCC 2998; SK-OV-3; MDA-MB-435; HL-60; 786-0; UACC-257; M14; SK-MEL-5; HOP-62; SF-268.
Common to all, as to experiment: inhibition of tumour cell growth, NCI panel, 48 h

Molecules are shown by their SMILES.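 1) Cells in 96-well plates. 2) Compound, 48 h, 5 concentrations. 3) Linear interpolation between surrounding doses. 4) Unreached endpoint = highest concentration. Here, GI50 denotes the concentration required for 50% inhibition of growth.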 Calls of active or inactive are those of the source. Rule as the data show it: active = GI50 up to about 1.1 µM and inactive = higher.

For `O=C(O)c1nn(-c2ccccc2-c2nnc(O)nc2O)c(=O)[nH]c1=O`, the GI50 in the test with OVCAR-3, in the test on HOP-92, with Malme-3M, in the test on U-251, in the test on SK-MEL-28 and with NCI-H460 was > 100 µM (inactive) throughout. Also, the GI50 in the test on MDA-MB-231 was > 100 µM (inactive); in the test on OVCAR-5, > 100 µM (inactive); in the test on CCRF-CEM, 51.8 µM (inactive); in the test on RPMI-8226, > 100 µM (inactive); in the test on HCC 2998, > 100 µM (inactive); with SK-OV-3, > 100 µM (inactive). Besides, the GI50 with MDA-MB-435 is > 100 µM (inactive); in the test on HL-60, 30.5 µM (inactive); in the test on 786-0, > 100 µM (inactive); in the test on UACC-257, > 100 µM (inactive); in the test on M14, > 100 µM (inactive); with SK-MEL-5, > 100 µM (inactive). Moreover, the GI50 in the test with HOP-62 and in the test on SF-268 was > 100 µM (inactive) each time.

For the compound `CC(C)n1c2c(c3ccccc3c1=O)C(=O)c1ccccc1-2`, the GI50 in the test with OVCAR-3, in the test on HOP-92, in the test with Malme-3M, with U-251, with SK-MEL-28 and in the test on MDA-MB-231 was > 100 µM (inactive) each time. The GI50 in the test on OVCAR-5, with CCRF-CEM, with RPMI-8226, in the test on HCC 2998, in the test with SK-OV-3 and in the test with MDA-MB-435 was > 100 µM (inactive) each time. The GI50 in the test on HL-60, in the test with 786-0, in the test on UACC-257, with M14, in the test with SK-MEL-5 and in the test on HOP-62 was > 100 µM (inactive) each time. Also, in the test on SF-268, the GI50 is > 100 µM (inactive).

As for `O=[N+]([O-])c1ccc(Cl)cc1/C=N/C12CC3CC(CC(C3)C1)C2`, the GI50 was 46.9 µM (inactive) with OVCAR-3; 79.1 µM (inactive) in the test with HOP-92; 43.6 µM (inactive) with Malme-3M; 33.2 µM (inactive) with U-251; 76.9 µM (inactive) in the test with SK-MEL-28; > 74 µM (inactive) in the test on NCI-H460. The GI50 in the test on MDA-MB-231 is 40.3 µM (inactive); with OVCAR-5 it was > 100 µM (inactive); with CCRF-CEM it was 5.64 µM (inactive); in the test on RPMI-8226, 20.2 µM (inactive); with HCC 2998, > 82.4 µM (inactive); in the test on SK-OV-3, > 100 µM (inactive). Also, the GI50 is 47.6 µM (inactive) in the test with MDA-MB-435; 5.77 µM (inactive) with HL-60; 41.1 µM (inactive) in the test with 786-0; > 31.6 µM (inactive) with UACC-257; 45.5 µM (inactive) with M14; 56.6 µM (inactive) in the test with SK-MEL-5. Further, the GI50 with HOP-62 was 60.8 µM (inactive); in the test with SF-268, 50.2 µM (inactive).

Turning to `CC12CCC(C(Br)(Br)C1=O)C2(C)C` (configuration not stated), the GI50 was 0.507 µM (active) with OVCAR-3; 0.617 µM (active) with HOP-92; 0.056 µM (active) in the test on Malme-3M; < 0.0469 µM (active) in the test with U-251; 0.826 µM (active) with SK-MEL-28; 4.05 µM (inactive) in the test on NCI-H460. Besides, the GI50 with MDA-MB-231 is 0.104 µM (active); in the test on OVCAR-5, 2.28 µM (inactive); in the test on CCRF-CEM, < 0.0166 µM (active); with RPMI-8226 it was 0.0759 µM (active); in the test with HCC 2998 it was 2.28 µM (inactive); in the test with SK-OV-3, 1.51 µM (inactive). Besides, the GI50 in the test with MDA-MB-435 is 0.0942 µM (active); with HL-60, < 0.0148 µM (active); in the test with 786-0 it was 0.0545 µM (active); with UACC-257, 2.74 µM (inactive); in the test on M14, 0.125 µM (active); in the test with SK-MEL-5, 0.348 µM (active). Moreover, the GI50 with HOP-62 is 6 µM (inactive); in the test on SF-268 it was 0.0989 µM (active).

Consider `CC1(C)NC2C(=O)c3c([nH]c4ccccc34)[C@]3(C)CCC1CC23` (some centres not stated), for which the GI50 with OVCAR-3 was > 100 µM (inactive); with HOP-92 it was 61.7 µM (inactive); in the test on Malme-3M, > 100 µM (inactive); in the test on U-251, > 100 µM (inactive); in the test on SK-MEL-28, > 100 µM (inactive); in the test with NCI-H460, > 100 µM (inactive). For the same compound, the GI50 is > 100 µM (inactive) in the test on MDA-MB-231; > 100 µM (inactive) with OVCAR-5; > 100 µM (inactive) in the test on CCRF-CEM; 82.8 µM (inactive) with RPMI-8226; > 100 µM (inactive) with HCC 2998; > 100 µM (inactive) with MDA-MB-435. In addition, the GI50 in the test with HL-60, in the test on 786-0, in the test with UACC-257, in the test with SK-MEL-5, with HOP-62 and with SF-268 was > 100 µM (inactive) each time.

Regarding `CCOC(=O)c1c(-c2ccc(Cl)cc2)c(C#N)c(=S)n(C2OC(COC(C)=O)C(OC(C)=O)C(OC(C)=O)C2OC(C)=O)c1-c1ccccc1` (configuration not stated), the GI50 with OVCAR-3 was > 100 µM (inactive); in the test on HOP-92, 12.7 µM (inactive); with Malme-3M, > 100 µM (inactive); in the test with U-251 it was > 100 µM (inactive); in the test with SK-MEL-28 it was > 100 µM (inactive); in the test on NCI-H460, > 100 µM (inactive). Further, the GI50 in the test with MDA-MB-231, with OVCAR-5, in the test on CCRF-CEM, in the test on RPMI-8226, in the test on HCC 2998 and in the test on SK-OV-3 was > 100 µM (inactive) each time. The GI50 in the test with MDA-MB-435 was > 100 µM (inactive); with HL-60, > 100 µM (inactive); in the test on 786-0, > 100 µM (inactive); with UACC-257 it was > 100 µM (inactive); with M14, 57.5 µM (inactive); with SK-MEL-5, 28 µM (inactive). The GI50 with HOP-62 and in the test on SF-268 was > 100 µM (inactive) each time.

As to `Cc1nnc(N)nc1/C=C\c1cccs1`, the GI50 was 18.4 µM (inactive) in the test with HOP-92; 13.4 µM (inactive) with Malme-3M; 29.9 µM (inactive) in the test on U-251; 28.8 µM (inactive) in the test with SK-MEL-28; 14.7 µM (inactive) in the test on NCI-H460; 87.3 µM (inactive) in the test on MDA-MB-231. Further, the GI50 in the test with OVCAR-5 was 21.8 µM (inactive); in the test on CCRF-CEM, 16.7 µM (inactive); with RPMI-8226 it was 22.4 µM (inactive); with HCC 2998, 14.6 µM (inactive); with SK-OV-3, 36.5 µM (inactive); in the test on MDA-MB-435 it was 18 µM (inactive). Moreover, the GI50 is 6.11 µM (inactive) with HL-60; 18.6 µM (inactive) in the test with 786-0; 32.6 µM (inactive) with UACC-257; 16.2 µM (inactive) in the test on M14; > 10 µM (inactive) in the test with SK-MEL-5; 16.7 µM (inactive) in the test on HOP-62. Further, in the test on SF-268, the GI50 is 19.5 µM (inactive).

In the case of `CO[C@@H]1C[C@H]2[C@@H]3CC[C@H]([C@@H](C)COC(C)=O)[C@@]3(C)CC[C@@H]2[C@@]2(C)CC[C@H]3C[C@]312`, the GI50 is 14.6 µM (inactive) in the test on OVCAR-3; 19.9 µM (inactive) with HOP-92; 16 µM (inactive) in the test with Malme-3M; 13.1 µM (inactive) in the test with U-251; 17.1 µM (inactive) in the test with SK-MEL-28; 10.1 µM (inactive) in the test on NCI-H460. For the same compound, the GI50 with MDA-MB-231 is 11.9 µM (inactive); with OVCAR-5, 11.5 µM (inactive); with CCRF-CEM, 14.9 µM (inactive); with RPMI-8226 it was 8.67 µM (inactive); in the test on HCC 2998, 15.1 µM (inactive); in the test on MDA-MB-435, 15.1 µM (inactive). Further, the GI50 is 3.89 µM (inactive) in the test on HL-60; 16.5 µM (inactive) with 786-0; 11.6 µM (inactive) in the test on UACC-257; 16.9 µM (inactive) in the test on M14; 3.61 µM (inactive) with SK-MEL-5; 17.7 µM (inactive) with HOP-62. Also, the GI50 in the test on SF-268 is 17.9 µM (inactive).

With `[N-]=[N+]=CC(=O)OCC1NC(=O)C(COC(=O)C=[N+]=[N-])NC1=O` (configuration not stated), the GI50 with OVCAR-3, with HOP-92, in the test with Malme-3M, with U-251, in the test on SK-MEL-28 and in the test on NCI-H460 was > 100 µM (inactive) in each case. The GI50 in the test with MDA-MB-231, in the test with OVCAR-5, with CCRF-CEM, in the test on RPMI-8226, in the test on HCC 2998 and in the test with SK-OV-3 was > 100 µM (inactive) each time. Also, the GI50 with MDA-MB-435, in the test with HL-60, in the test with 786-0, in the test with UACC-257, with M14 and in the test on HOP-62 was > 100 µM (inactive) each time. Besides, the GI50 in the test with SF-268 is > 100 µM (inactive).

Turning to `Cc1c(C)c(C)c(Cn2[nH]c(=O)n(C)c2=O)c(C)c1C`, the GI50 with HOP-92, in the test on Malme-3M, with U-251, in the test with SK-MEL-28, with NCI-H460 and with MDA-MB-231 was > 100 µM (inactive) in each case. In addition, the GI50 in the test on CCRF-CEM, in the test with RPMI-8226, in the test on HCC 2998, with SK-OV-3, in the test with MDA-MB-435 and with HL-60 was > 100 µM (inactive) throughout. Moreover, the GI50 in the test with 786-0, in the test on UACC-257, in the test with M14, in the test on SK-MEL-5, in the test on HOP-62 and in the test with SF-268 was > 100 µM (inactive) in each case.
